Reference: patent US20240067651A1 (Biohaven Therapeutics Ltd., priority 2019, published 2024)

Experiments:
[1] = Plasma Stability; format: in vitro ADME, human; conditions: % remaining @ 1 h
Outline: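 Compounds incubated at 1 μM in fresh human plasma for 1 hour at 37° C, then protein-precipitated with acetonitrile/formic acid containing internal standard. Remaining parent measured by LC-MS/MS in triplicate, expressed as percent of control remaining.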

[2] = Stability in Simulated Gastric Fluid (SGF); format: in vitro ADME; set-up: key: % parent compound remaining relative to 0-minute sample
Outline: (§1)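 Compound at 2 μg/mL final was incubated at 37° C with orbital shaking in SGF containing pepsin (pH 1.2) or SIF containing pancreatin (pH 6.8), sampled from 0 to 60 minutes. Parent remaining was measured by LC-MS/MS relative to the 0-minute sample; half-life came from ln(% remaining) versus time when enough points existed.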

[3] = Stability in Simulated Intestinal Fluid (SIF); format: in vitro ADME; set-up: key: % parent compound remaining relative to 0-minute sample
Outline: as §1

[4] = Caco-2 Permeability Assay; format: in vitro ADME, human; conditions: human, Caco-2, pH 7.4
Outline: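 Caco-2 monolayers cultured 21 days (TEER >600 […]); test article at 10 μM in HBSS/HEPES pH 7.4 transport medium, dosed apical or basolateral, ±Pgp inhibitor. Incubated 90 min at 37 °C; both compartments quantified by LC-MS/MS. Papp (A→B, B→A), efflux ratio and % recovery calculated.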

[5] = bare number, unit or time not given

Row | SMILES | human Plasma stability [1] | SGF ([2]; % remaining @ 1 h) | SIF ([3]; % remaining @ 1 h) | Papp at 90 min, 10 µM [4] [×10⁻⁶ cm/s] | SGF [2, 5] | SIF [3, 5]
1 | CC(C)C[C@H](N)C(=O)OCn1ccc2c1c(=O)[nH]c(=S)n2CCOC(C)C.O=C(O)C(F)(F)F [Example 320, trifluoroacetic acid {4-oxo-1-[2-(propan-2-yloxy)ethyl]-2-sulfanylidene-1H,2H,3H,4H,5H-pyrrolo[3,2-d]pyrimidin-5-yl}methyl (2S)-2-amino-4-methylpentanoate] | 98%@ 1 h | 48%@ 1 h | 42%@ 1 h | < 0.259 |  | 
2 | CC(C)C[C@H](N)C(=O)OCSc1nc(=O)c2c(ccn2COC(=O)[C@@H](N)CC(C)C)n1CCOC(C)C.O=C(O)C(F)(F)F.O=C(O)C(F)(F)F [Example 321, bis(trifluoroacetic acid) {[5-({[(2S)-2-amino-4-methylpentanoyl]oxy}methyl)-4-oxo-1-[2-(propan-2-yloxy)ethyl]-1H,4H,5H-pyrrolo[3,2-d]pyrimidin-2-yl]sulfanyl}methyl (2S)-2-amino-4-methylpentanoate] | 1%@ 1 h | 92%@ 1 h | 2%@ 1 h | < 0.365 |  | 
3 | CC(C)C[C@H](N)C(=O)OCn1c(=O)c2c(ccn2COC(=O)[C@@H](N)CC(C)C)n(CCOC(C)C)c1=S.O=C(O)C(F)(F)F.O=C(O)C(F)(F)F [Example 322, bis(trifluoroacetic acid) [3-({[(2S)-2-amino-4-methylpentanoyl]oxy}methyl)-4-oxo-1-[2-(propan-2-yloxy)ethyl]-2-sulfanylidene-1H,2H,3H,4H,5H-pyrrolo[3,2-d]pyrimidin-5-yl]methyl (2S)-2-amino-4-methylpentanoate] | 64%@ 1 h | 56%@ 1 h | 61%@ 1 h | < 0.106 |  | 
4 | CC(C)C[C@H](N)C(=O)OCn1ccc2c1c(=O)n(CO)c(=S)n2CCOC(C)C.O=C(O)C(F)(F)F [Example 323, trifluoroacetic acid [3-(hydroxymethyl)-4-oxo-1-[2-(propan-2-yloxy)ethyl]-2-sulfanylidene-1H,2H,3H,4H,5H-pyrrolo[3,2-d]pyrimidin-5-yl]methyl (2S)-2-amino-4-methylpentanoate] | 12%@ 1 h | 95%@ 1 h | 52%@ 1 h | < 0.355 |  | 
5 | CC(C)C[C@@H](N)C(=O)OCSc1nc(=O)c2c(ccn2COC(=O)[C@H](N)CC(C)C)n1CCOC(C)C.O=C(O)C(F)(F)F.O=C(O)C(F)(F)F [Example 325, bis(trifluoroacetic acid) {[5-({[(2R)-2-amino-4-methylpentanoyl]oxy}methyl)-4-oxo-1-[2-(propan-2-yloxy)ethyl]-1H,4H,5H-pyrrolo[3,2-d]pyrimidin-2-yl]sulfanyl}methyl (2R)-2-amino-4-methylpentanoate] | 1%@ 1 h | 99%@ 1 h | 3%@ 1 h | 0.908 |  | 
6 | CC(C)C[C@@H](N)C(=O)OCn1c(=O)c2c(ccn2COC(=O)[C@H](N)CC(C)C)n(CCOC(C)C)c1=S.O=C(O)C(F)(F)F.O=C(O)C(F)(F)F [Example 326, bis(trifluoroacetic acid) [3-({[(2R)-2-amino-4-methylpentanoyl]oxy}methyl)-4-oxo-1-[2-(propan-2-yloxy)ethyl]-2-sulfanylidene-1H,2H,3H,4H,5H-pyrrolo [3,2-d]pyrimidin-5-yl]methyl (2R)-2-amino-4-methylpentanoate] | 17%@ 1 h | 97%@ 1 h | 9%@ 1 h | < 0.338 |  | 
7 | CC(C)C[C@@H](N)C(=O)OCn1ccc2c1c(=O)n(CO)c(=S)n2CCOC(C)C.O=C(O)C(F)(F)F [Example 327, trifluoroacetic acid [3-(hydroxymethyl)-4-oxo-1-[2-(propan-2-yloxy)ethyl]-2-sulfanylidene-1H,2H,3H,4H,5H-pyrrolo[3,2-d]pyrimidin-5-yl]methyl (2R)-2-amino-4-methylpentanoate] | 21%@ 1 h | 100%@ 1 h | 49%@ 1 h | < 1.03 |  | 
8 | CC(C)OCCn1c(=S)[nH]c(=O)c2c1ccn2COC(=O)CCCCOC(=O)CN.O=C(O)C(F)(F)F [Example 330, trifluoroacetic acid {4-oxo-1-[2-(propan-2-yloxy)ethyl]-2-sulfanylidene-1H,2H,3H,4H,5H-pyrrolo[3,2-d]pyrimidin-5-yl}methyl 5-[(2-aminoacetyl)oxy]pentanoate] | 2% @ 1 h | 84% @ 1 h | 7% @ 1 h | 0.641 |  | 
9 | CC(C)OCCn1c(SCOC(=O)CCCCOC(=O)CN)nc(=O)c2c1ccn2COC(=O)CCCCOC(=O)CN.O=C(O)C(F)(F)F.O=C(O)C(F)(F)F [Example 331, bis (trifluoroacetic acid) ({5-[{{5-[(2-aminoacetyl)oxy]pentanoyl}oxy)meth-yl]-4-oxo-1-[2-(propan-2-yloxy)ethyl]-1H,4H,5H-pyrrolo[3,2-d]pyrimidin-2-yl}sulfanyl)methyl 5-[(2-aminoacetyl)oxy]pentanoate] | 1% @ 1 h | 93% @ 1 h | 1% @ 1 h | 3.68 |  | 
10 | CC(C)OCCn1c(=S)n(COC(=O)CCCCOC(=O)CN)c(=O)c2c1ccn2COC(=O)CCCCOC(=O)CN.O=C(O)C(F)(F)F.O=C(O)C(F)(F)F [Example 332, bis (trifluoroacetic acid) {3-[{{5-[(2-aminoacetyl)oxy]pentanoyl}oxy)meth-yl]-4-oxo-1-[2-(propan-2-yloxy)ethyl]-2-sulfanylidene-1H,2H,3H,4H,5H-pyrrolo[3,2-d]pyrimidin-5-yl}methyl 5-[(2-aminoacetyl)oxy]pentanoate] | 4% @ 1 h | 91% @ 1 h | 4% @ 1 h | < 0.073 |  | 
11 | CC(C)OCCn1c(=S)[nH]c(=O)c2c1ccn2COC(=O)CCCCOC(=O)[C@@H](NC(=O)OC(C)(C)C)C(C)C [Example 333, {4-oxo-1-[2-(propan-2-yloxy)ethyl]-2-sulfanylidene-1H,2H,3H,4H,5H-pyrrolo[3,2-d]pyrimidin-5-yl}methyl 5-{[(2S)-2-{[(tert-butoxy)carbonyl]amino}-3-methylbutanoyl]oxy}pentanoate] | 5% @ 1 h | 98% @ 1 h | 4% @ 1 h | < 0.072 |  | 
12 | CC(C)OCCn1c(=S)[nH]c(=O)c2c1ccn2COC(=O)CCCCOC(=O)[C@H](Cc1ccccc1)NC(=O)OC(C)(C)C [Example 334, {4-oxo-1-[2-(propan-2-yloxy)ethyl]-2-sulfanylidene-1H,2H,3H,4H,5H-pyrrolo[3,2-d]pyrimidin-5-yl}methyl 5-{[(2S)-2-{[(tert-butoxy)carbonyl]amino}-3-phenylpropanoyl]oxy}pentanoate] | 58% remaining |  |  | 6.26 | 90 | 2
13 | CC(C)OCCn1c(=S)[nH]c(=O)c2c1ccn2COC(=O)CCCCOC(=O)[C@@H](N)C(C)C.O=C(O)C(F)(F)F [Example 335, trifluoroacetic acid {4-oxo-1-[2-(propan-2-yloxy)ethyl]-2-sulfanylidene-1H,2H,3H,4H,5H-pyrrolo[3,2-d]pyrimidin-5-yl}methyl 5-{[(2S)-2-amino-3-methylbutanoyl]oxy}pentanoate] | 3% remaining |  |  | 3.32 | 99 | 9
14 | CC(C)OCCn1c(SCO)nc(=O)c2[nH]ccc21 [Example 336, 2-[(hydroxymethyl)sulfanyl]-1-[2-(propan-2-yloxy)ethyl]-1H,4H,5H-pyrrolo[3,2-d]pyrimidin-4-one] | 73% remaining |  |  | 1.82 | 93 | 6
15 | CC(C)OCCn1c(=S)n(COC(=O)CCCCOC(=O)[C@H](N)C(C)C)c(=O)c2c1ccn2COC(=O)CCCCOC(=O)[C@H](N)C(C)C.O=C(O)C(F)(F)F.O=C(O)C(F)(F)F [Example 339, bis(trifluoroacetic acid) (3-{[(5-{[(2R)-2-amino-3-methylbutanoyl]oxy}pentanoyl)oxy]methyl}-4-oxo-1-[2-(propan-2-yloxy)ethyl]-2-sulfanylidene-1H,2H,3H,4H,5H-pyrrolo[3,2-d]pyrimidin-5-yl)methyl 5-{[(2R)-2-amino-3-methylbutanoyl]oxy}pentanoate] | 44% remaining |  |  | 3.86 | 99 | 72
16 | CC(C)OCCn1c(=S)[nH]c(=O)c2c1ccn2COC(=O)CCCCOC(=O)[C@@H](N)Cc1ccccc1.O=C(O)C(F)(F)F [Example 340, trifluoroacetic acid {4-oxo-1-[2-(propan-2-yloxy)ethyl]-2-sulfanylidene-1H,2H,3H,4H,5H-pyrrolo[3,2-d]pyrimidin-5-yl}methyl 5-{[(2S)-2-amino-3-phenylpropanoyl]oxy}pentanoate] | 4% remaining |  |  | 0.644 | 100 | 99
17 | CC(C)OCCn1c(=S)[nH]c(=O)c2c1ccn2COC(=O)CCCCOC(=O)[C@H](N)Cc1ccccc1.O=C(O)C(F)(F)F [Example 341, trifluoroacetic acid {4-oxo-1-[2-(propan-2-yloxy)ethyl]-2-sulfanylidene-1H,2H,3H,4H,5H-pyrrolo[3,2-d]pyrimidin-5-yl}methyl 5-{[(2R)-2-amino-3-phenylpropanoyl]oxy}pentanoate] | 1% remaining |  |  | 0.259 | 99 | 33
